Assay results: patent US10682345B2, “Muscarinic antagonists and combinations thereof for the treatment of airway disease in horses” (Boehringer Ingelheim Vetmedica GmbH, priority 2014, dated 2020)

Columns and labels:
RAO horses [1] = assay: Phase II: cross-over, blinded mouldy hay challenge study, 7 days treatment; format: in vivo, horse; settings: for EL values over time / ΔPL values over time: Days 4 and 8 compared to Day 1; for RL values over time: clenbuterol group and 800 μg LAMA 1 group
Method: LAMA 1 is investigated in a cross-over, blinded mouldy hay challenge study. 8 RAO horses are examined in the study, which is divided into an acclimation and a treatment phase. Placebo for LAMA 1 is administered once daily per inhalation via the Equine Inhaler device to all horses for 1 week in the acclimation period. LAMA 1 and clenbuterol are administered to the horses in a cross-over design in the treatment phase. The horses are challenged by exposure to mouldy hay throughout the acclimation and treatment phases. LAMA 1 is administered with the doses of 200 μg (2 actuations)/400 μg (4 actuations)/800 μg (8 actuations)/horse (ex-RESPIMAT®) once daily for 7 days per inhalation via the Equine Inhaler device. Nozzle A and a commercially available RESPIMAT® is used in the study. Clenbuterol is administered with a dose of 0.8 μg/kg per os, twice daily for 7 days. Lung function variables (change in transpulmonary pressure (ΔPL), lung resistance (RL) and lung elastance (EL)), breathing effort score, Borborygmi score, blood gas analysis are examined during the study.

[2] = Kallos-Pagel Model, effects vs. tiotropium; format: in vivo
healthy horses = assay: Phase III: ECG measurements for 48 h after single inhalation; format: in vivo, horse; settings: single 800 μg inhalation, aqueous formulation, two healthy horses
Method: A single administration of 800 μg LAMA 1 (8 actuations in aqueous formulation) is performed per inhalation to two healthy horses in phase III. Subsequently, ECG measurements are done for 48 h.

RAO horses [3] = assay: Phase I and IV: mouldy hay challenge, single inhaled administration, lung function for 24 h; format: in vivo, horse
Method: LAMA 1 is investigated in two RAO horses at different phases or periods as part of a mouldy hay challenge study. The horses are challenged every day by exposure to mouldy hay. LAMA 1 is administered via the Equine Inhaler device at different doses or formulations. Lung function parameters (change in transpulmonary pressure (ΔPL), lung resistance (RL) and lung elastance (EL)) are measured for 24 h. A single administration of 800 μg LAMA 1 (8 actuations in aqueous formulation) is performed per inhalation to two RAO horses (ID numbers: 312 and 91) in phase I. Two RAO horses are treated with LAMA 1 in phase IV (ID numbers: 40 and 91), which can be divided into three periods. 2000 μg LAMA 1 (20 actuations in aqueous formulation) is administered per inhalation in period 1. 2000 μg LAMA 1 ([…] in ethanolic formulation) is administered per inhalation in period 2. 2000 μg LAMA 1 (20 actuations in ethanolic formulation) is administered per inhalation in period 3.

Hm3 = Hm3 (Homo sapiens, UniProt P20309); assay: Binding to Hm3 receptor (mean KD, dissociation half-life)
Hm3, sequence (P20309 whole entry): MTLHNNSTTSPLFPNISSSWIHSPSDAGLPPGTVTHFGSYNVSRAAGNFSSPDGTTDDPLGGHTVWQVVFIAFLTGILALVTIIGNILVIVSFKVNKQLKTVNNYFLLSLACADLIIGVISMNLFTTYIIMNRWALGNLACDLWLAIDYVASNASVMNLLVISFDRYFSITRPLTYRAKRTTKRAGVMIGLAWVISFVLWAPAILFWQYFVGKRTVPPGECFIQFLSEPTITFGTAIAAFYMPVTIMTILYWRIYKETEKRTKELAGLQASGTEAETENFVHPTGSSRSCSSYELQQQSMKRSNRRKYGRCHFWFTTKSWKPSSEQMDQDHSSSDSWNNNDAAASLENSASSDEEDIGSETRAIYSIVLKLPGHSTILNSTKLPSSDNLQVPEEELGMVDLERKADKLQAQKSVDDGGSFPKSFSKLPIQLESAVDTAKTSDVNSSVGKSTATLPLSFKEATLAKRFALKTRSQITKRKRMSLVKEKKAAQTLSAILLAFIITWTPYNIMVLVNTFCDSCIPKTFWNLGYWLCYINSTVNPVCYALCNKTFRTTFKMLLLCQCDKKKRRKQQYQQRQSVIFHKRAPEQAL

[4] = 800 μg group, Day 7 compared to Day 0
[5] = day 4, all LAMA 1 groups (200, 400, 800 μg)

Row | SMILES | EL values over time (RAO horses [1]) | ΔPL values over time (RAO horses [1]) | RL values over time (RAO horses [1]) | Breathing effort score (RAO horses [1]; study day 6, clenbuterol 0.8 μg/kg per os twice daily compared with 2 or 4 actuations of LAMA 1) | Effects in the Kallos-Pagel Model: protection ([2]; acute and chronic) [h] | Effects in the Kallos-Pagel Model vs. tiotropium: lower efficacy (chronic) ([2]; chronic, vs. tiotropium) [fold] | pH in arterial blood (RAO horses [1]; [4]) | paCO2 in arterial blood (RAO horses [1]; [4]) | Improvement in lung function after one week, compared with clenbuterol (RAO horses [1]; LAMA 1 once daily for one week, clenbuterol twice daily for one week) | Change in EL 30 min after administration (RAO horses [1]; day 4, 200 and 400 μg LAMA 1) | Change in ΔPL 30 min after administration (RAO horses [1]; day 4, 200 and 400 μg LAMA 1) | EL 30 min after administration vs pre-treatment (RAO horses [1]; [5]) | RL 30 min after administration vs pre-treatment (RAO horses [1]; [5]) | ΔPL 30 min after administration vs pre-treatment (RAO horses [1]; [5]) | ECG: abnormal observation (healthy horses) | ECG: arrhythmias (healthy horses) | Lung function variables at 24 h after single administration (RAO horses [3]; 24 h, compared with pre-treatment values) | Time until which lung function values continue to drop (RAO horses [3]; depending on lung function parameter, dose or formulation) [h] | Start of decrease in lung function variables (ΔPL, RL, EL) after administration (RAO horses [3]; single inhalation of 800 μg or 2000 μg, aqueous or ethanolic formulation) [min] | Kd (Hm3) [nM]
1 | CC(C)(C)NCC(O)c1cc(Cl)c(N)c(Cl)c1 (centres unmarked) [clenbuterol, reference compound] | None of the treatments (LAMA 1 or clenbuterol) alters significantly | None of the treatments (LAMA 1 or clenbuterol) alters significantly | significantly reduced | significantly smaller breathing effort scores |  |  |  |  |  |  |  |  |  |  |  |  |  |  |  | 
2 | CC(C(=O)O[C@H]1CC2C3O[C@@H]3[C@H](C1)[N+]2(C)C)(c1ccccc1)c1ccccc1 (stereo partly drawn) [LAMA 1, (1α,2β,4β,5α,7β)-3-Oxa-9-azoniatricyclo [3.3.1.0^2.4] nonane, 9,9-dimethyl-7-(1-oxo-2,2-diphenylpropoxy)-bromide] | None of the treatments (LAMA 1 or clenbuterol) alters significantly | None of the treatments (LAMA 1 or clenbuterol) alters significantly | significantly reduced |  | 24 | 10 | increases | reduces significantly | comparable to the significant improvement in lung function after the twice daily administration of clenbuterol | statistically significant | statistically significant | decrease | decrease | decrease | Only one observation is classified as either a first-degree heart block with aberrant intraventricular repolarization, or an artifact | Physiological arrhythmias are noted in both horses before and following the administration | below or reach the pre-treatment values | 2 to 8 | 5 | 0.4
